According to ChEMBL document CHEMBL5214956, “Structure-based design and modular synthesis of novel PI4K class II inhibitors bearing a 4-aminoquinazoline scaffold” (Bioorg Med Chem Lett, 2022):

Assays:
[1] = target: Phosphatidylinositol 4-kinase alpha (Homo sapiens, UniProt P42356); assay: Inhibition of PI4KA catalytic domain (unknown origin) assessed as enzyme residual activity incubated for 60 mins using ATP as substrate by ATP-Glo luminescent assay
[2] = target: Phosphatidylinositol 4-kinase beta (Homo sapiens, UniProt Q9UBF8); assay: Inhibition of PI4KB catalytic domain (unknown origin) assessed as enzyme residual activity incubated for 60 mins using ATP as substrate by ATP-Glo luminescent assay
Chain of Phosphatidylinositol 4-kinase beta (Q9UBF8 whole entry, the tested form may be a part): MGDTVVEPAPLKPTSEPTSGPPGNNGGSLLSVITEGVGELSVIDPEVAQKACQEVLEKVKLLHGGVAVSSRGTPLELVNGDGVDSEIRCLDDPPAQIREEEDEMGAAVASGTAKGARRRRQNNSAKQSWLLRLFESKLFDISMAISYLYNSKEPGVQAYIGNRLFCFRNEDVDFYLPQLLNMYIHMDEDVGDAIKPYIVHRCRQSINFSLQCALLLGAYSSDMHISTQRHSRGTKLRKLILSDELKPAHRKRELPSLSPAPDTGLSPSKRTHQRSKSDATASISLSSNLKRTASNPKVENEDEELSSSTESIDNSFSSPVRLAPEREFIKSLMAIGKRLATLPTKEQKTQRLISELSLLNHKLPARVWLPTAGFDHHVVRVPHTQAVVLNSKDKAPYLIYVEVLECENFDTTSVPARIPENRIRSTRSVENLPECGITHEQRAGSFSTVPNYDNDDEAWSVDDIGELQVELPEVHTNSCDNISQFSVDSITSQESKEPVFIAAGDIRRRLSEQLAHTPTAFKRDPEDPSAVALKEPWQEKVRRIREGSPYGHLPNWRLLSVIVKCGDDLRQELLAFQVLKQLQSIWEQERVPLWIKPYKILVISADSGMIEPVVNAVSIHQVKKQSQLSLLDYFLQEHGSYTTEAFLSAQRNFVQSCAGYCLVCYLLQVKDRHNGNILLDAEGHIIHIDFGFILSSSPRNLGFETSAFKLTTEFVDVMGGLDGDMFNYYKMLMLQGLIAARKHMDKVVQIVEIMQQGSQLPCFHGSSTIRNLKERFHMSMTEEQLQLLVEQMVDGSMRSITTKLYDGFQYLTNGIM

[3] = target: Phosphatidylinositol 4-kinase type 2-alpha (Homo sapiens, UniProt Q9BTU6); assay: Inhibition of PI4K2A catalytic domain (unknown origin) assessed as enzyme residual activity incubated for 60 mins using ATP as substrate by ATP-Glo luminescent assay
Chain of Phosphatidylinositol 4-kinase type 2-alpha (Q9BTU6 whole entry, the tested form may be a part): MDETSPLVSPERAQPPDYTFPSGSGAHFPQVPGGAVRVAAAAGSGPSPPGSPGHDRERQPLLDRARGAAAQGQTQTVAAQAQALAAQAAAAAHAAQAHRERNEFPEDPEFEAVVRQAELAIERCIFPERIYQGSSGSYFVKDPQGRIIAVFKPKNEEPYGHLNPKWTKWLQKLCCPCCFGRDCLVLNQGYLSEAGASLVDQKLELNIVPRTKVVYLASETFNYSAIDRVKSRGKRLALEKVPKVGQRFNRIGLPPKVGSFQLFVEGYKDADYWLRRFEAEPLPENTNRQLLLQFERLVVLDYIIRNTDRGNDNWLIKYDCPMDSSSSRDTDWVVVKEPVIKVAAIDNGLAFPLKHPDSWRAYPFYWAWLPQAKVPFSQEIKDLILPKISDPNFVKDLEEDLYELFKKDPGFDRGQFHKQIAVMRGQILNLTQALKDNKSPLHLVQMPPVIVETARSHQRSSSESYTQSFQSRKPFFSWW

Chain of Phosphatidylinositol 4-kinase alpha (P42356 whole entry, the tested form may be a part): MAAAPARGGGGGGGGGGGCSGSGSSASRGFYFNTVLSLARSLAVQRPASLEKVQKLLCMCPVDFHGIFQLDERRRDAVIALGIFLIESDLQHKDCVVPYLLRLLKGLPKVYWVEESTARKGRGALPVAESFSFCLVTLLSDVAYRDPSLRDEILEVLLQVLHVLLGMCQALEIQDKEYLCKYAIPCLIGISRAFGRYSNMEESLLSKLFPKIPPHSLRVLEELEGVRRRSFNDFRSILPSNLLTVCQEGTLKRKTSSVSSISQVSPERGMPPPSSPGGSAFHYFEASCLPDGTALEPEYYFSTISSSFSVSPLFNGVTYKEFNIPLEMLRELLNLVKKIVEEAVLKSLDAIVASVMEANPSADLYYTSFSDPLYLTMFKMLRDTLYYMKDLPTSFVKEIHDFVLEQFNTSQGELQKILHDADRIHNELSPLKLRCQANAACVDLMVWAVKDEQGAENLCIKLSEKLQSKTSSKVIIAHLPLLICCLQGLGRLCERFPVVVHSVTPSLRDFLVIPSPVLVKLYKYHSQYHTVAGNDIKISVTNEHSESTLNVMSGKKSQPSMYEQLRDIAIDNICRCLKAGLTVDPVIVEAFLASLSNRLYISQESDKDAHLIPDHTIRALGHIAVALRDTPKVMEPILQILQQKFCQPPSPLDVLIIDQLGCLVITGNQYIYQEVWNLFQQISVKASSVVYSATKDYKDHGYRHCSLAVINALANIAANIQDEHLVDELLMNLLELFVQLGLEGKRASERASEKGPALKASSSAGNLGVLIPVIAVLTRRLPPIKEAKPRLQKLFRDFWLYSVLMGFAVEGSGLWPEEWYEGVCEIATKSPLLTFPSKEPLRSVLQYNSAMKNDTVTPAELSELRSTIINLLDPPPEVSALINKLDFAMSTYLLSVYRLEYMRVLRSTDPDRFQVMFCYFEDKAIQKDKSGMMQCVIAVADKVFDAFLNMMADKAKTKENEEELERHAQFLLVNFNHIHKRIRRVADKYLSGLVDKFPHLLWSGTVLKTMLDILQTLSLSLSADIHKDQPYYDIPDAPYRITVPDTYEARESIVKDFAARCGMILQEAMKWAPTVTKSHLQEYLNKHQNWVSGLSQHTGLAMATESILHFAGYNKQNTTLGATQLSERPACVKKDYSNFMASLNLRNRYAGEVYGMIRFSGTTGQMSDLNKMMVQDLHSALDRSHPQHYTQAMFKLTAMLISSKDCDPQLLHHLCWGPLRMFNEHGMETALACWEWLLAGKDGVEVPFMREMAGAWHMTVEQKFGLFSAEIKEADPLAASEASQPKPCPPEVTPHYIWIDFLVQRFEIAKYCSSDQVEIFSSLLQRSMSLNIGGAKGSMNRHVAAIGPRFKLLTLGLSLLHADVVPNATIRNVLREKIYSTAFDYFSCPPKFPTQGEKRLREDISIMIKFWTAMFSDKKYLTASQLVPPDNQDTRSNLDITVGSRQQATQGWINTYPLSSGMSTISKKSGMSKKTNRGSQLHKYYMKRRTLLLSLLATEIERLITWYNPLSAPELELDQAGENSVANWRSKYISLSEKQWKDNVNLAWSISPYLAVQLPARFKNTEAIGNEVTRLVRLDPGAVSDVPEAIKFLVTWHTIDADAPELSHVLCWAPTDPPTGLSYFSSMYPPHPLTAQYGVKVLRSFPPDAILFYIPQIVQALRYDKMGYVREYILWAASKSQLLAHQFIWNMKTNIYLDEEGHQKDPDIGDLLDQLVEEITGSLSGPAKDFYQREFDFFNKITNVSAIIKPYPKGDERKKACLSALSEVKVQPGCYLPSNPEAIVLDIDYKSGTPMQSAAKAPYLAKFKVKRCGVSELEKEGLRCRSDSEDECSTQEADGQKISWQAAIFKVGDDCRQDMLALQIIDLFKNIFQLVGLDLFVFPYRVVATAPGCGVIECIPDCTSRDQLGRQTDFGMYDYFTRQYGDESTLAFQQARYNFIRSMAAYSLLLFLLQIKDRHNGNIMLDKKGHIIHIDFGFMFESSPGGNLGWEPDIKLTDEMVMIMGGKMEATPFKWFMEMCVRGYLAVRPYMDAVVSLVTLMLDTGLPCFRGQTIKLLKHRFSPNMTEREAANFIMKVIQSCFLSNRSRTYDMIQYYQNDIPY

IC50 [1] [µM] | IC50 [2] [µM] | IC50 [3] [µM] | SMILES
> 50 | > 50 |  | Nc1ncnc2c1ncn2[C@@H]1C[C@@]2(CO)CC[C@@H]1C2
> 50 | > 50 |  | CC(=O)Nc1cccc(-c2cc3ncnc(N)c3cc2C(N)=O)c1
> 50 | > 50 |  | NC(=O)c1cc2c(N)ncnc2cc1-c1cccc(CO)c1
 |  | > 50 | NC(=O)c1cc2c(N)ncnc2cc1-c1ccc(CO)o1
> 50 | > 50 |  | NC(=O)c1cc2c(N)ncnc2cc1-c1ccc2[nH]ccc2c1
> 50 | > 50 |  | NC(=O)c1cc2c(N)ncnc2cc1-c1ccc2c(c1)CCO2
> 50 | > 50 | 1.46 | CCCCc1cc(=O)oc2cc(OCC(=O)N[C@@H](Cc3c[nH]c4ccc(O)cc34)C(=O)O)ccc12

More lines, now with the values behind:

SMILES | IC50 [1] [µM] | IC50 [2] [µM] | IC50 [3] [µM]
NC(=O)c1cc2c(N)ncnc2cc1-c1ccc2[nH]cnc2c1 | > 50 |  | 
NC(=O)c1cc2c(N)ncnc2cc1-c1cncc(CO)c1 |  |  | > 50
NC(=O)c1cc2c(N)ncnc2cc1-c1ccc2cc[nH]c2c1 | > 50 | > 50 | 
NC(=O)c1cc2c(N)ncnc2cc1-c1ccc2c(c1)OCO2 | > 50 | > 50 | 
COC[C@H]1OC(=O)c2coc3c2[C@@]1(C)C1=C(C3=O)[C@@H]2CCC(=O)[C@@]2(C)C[C@H]1OC(C)=O [WORTMANNIN] | 0.28 | 0.44 | > 30
